ChEMBL document CHEMBL4808187, “Antiarrhythmic Hit to Lead Refinement in a Dish Using Patient-Derived iPSC Cardiomyocytes” (J Med Chem, 2021)
Active and inactive are the calls of the source. The rule behind the calls is not given here.

Tested on: not listed separately
Test: Antiarrhythmic activity in hiPSC-CMs assessed as cessation dose of cell beating
Conditions: human, ipsc-cm

| SMILES | Activity |
| --- | --- |
| COc1ccccc1OCC(N)c1ccccc1.Cl (stereo unspecified) | 22 µM |
| COCCNC(C)COc1c(C)cccc1C.Cl (stereo unspecified) | Not Active |
| Cc1ccc(OCC(N)c2ccccc2)c(C)c1.Cl (stereo unspecified) | 66 µM |
| Cc1cc(C)cc(OCC(NCCO)c2ccccc2)c1.Cl (stereo unspecified) | 66 µM |
| Cc1cccc(C)c1OCC(N)c1ccc2ccccc2c1.Cl (stereo unspecified) | Not Active |
| CC(=O)NC(COc1c(C)cccc1C)c1ccccc1 (stereo unspecified) | Not Active |
| Cl.NC(COc1ccccc1OC(F)(F)F)c1ccccc1 (stereo unspecified) | 66 µM |
| CCc1ccccc1OCC(N)c1ccccc1.Cl (stereo unspecified) | 66 µM |
| COCCNC(COc1cc(C(F)(F)F)cc(C(F)(F)F)c1)c1ccccc1.Cl (stereo unspecified) | Not Active |
| Cc1cccc(C)c1OCC(C)NCc1ccccc1.Cl (stereo unspecified) | 200 µM |
| CCCc1ccccc1OCC(N)c1ccccc1.Cl (stereo unspecified) | 22 µM |
| CCCNC(C)COc1c(C)cccc1C.Cl (stereo unspecified) | 200 µM |
| Cc1ccc(OCC(N)C2CC2)cc1C.Cl (stereo unspecified) | 66 µM |

Tested on: iPSC-CM
Test: (§1) Antiarrhythmic activity in patient-derived hiPSC-CMs carrying LQT3 mutation assessed as cessation dose for cell beating
Assay type: functional
Conditions: Homo sapiens

| SMILES | Activity |
| --- | --- |
| COCCNC(C)COc1c(C)cccc1C.Cl (stereo unspecified) | inactive |

Tested on: not listed separately
Test: as §1
Assay type: functional, Homo sapiens, iPSC-CM
Conditions: not given

| SMILES | Activity |
| --- | --- |
| COc1ccccc1OCC(N)c1ccccc1.Cl (stereo unspecified) | 133 µM |
| Cc1ccc(OCC(N)c2ccccc2)c(C)c1.Cl (stereo unspecified) | 66 µM |
| Cc1cc(C)cc(OCC(NCCO)c2ccccc2)c1.Cl (stereo unspecified) | 22 µM |
| Cc1cccc(C)c1OCC(N)c1ccc2ccccc2c1.Cl (stereo unspecified) | 133 µM |
| CC(=O)NC(COc1c(C)cccc1C)c1ccccc1 (stereo unspecified) | 66 µM |
| Cl.NC(COc1ccccc1OC(F)(F)F)c1ccccc1 (stereo unspecified) | 66 µM |
| CCc1ccccc1OCC(N)c1ccccc1.Cl (stereo unspecified) | 22 µM |
| COCCNC(COc1cc(C(F)(F)F)cc(C(F)(F)F)c1)c1ccccc1.Cl (stereo unspecified) | 66 µM |
| Cc1cccc(C)c1OCC(C)NCc1ccccc1.Cl (stereo unspecified) | 133 µM |
| CCCc1ccccc1OCC(N)c1ccccc1.Cl (stereo unspecified) | 22 µM |
| CCCNC(C)COc1c(C)cccc1C.Cl (stereo unspecified) | 200 µM |
| Cc1ccc(OCC(N)C2CC2)cc1C.Cl (stereo unspecified) | 66 µM |

Tested on: not listed separately
Test: Antiarrhythmic activity in hiPSC-CMs assessed as dose for induction of early after depolarizations
Conditions: human, ipsc-cm

| SMILES | Activity |
| --- | --- |
| COc1ccccc1OCC(N)c1ccccc1.Cl (stereo unspecified) | 7.4 µM |
| COCCNC(C)COc1c(C)cccc1C.Cl (stereo unspecified) | 66 µM |
| Cc1ccc(OCC(N)c2ccccc2)c(C)c1.Cl (stereo unspecified) | Not Active |
| Cc1cc(C)cc(OCC(NCCO)c2ccccc2)c1.Cl (stereo unspecified) | Not Active |
| Cc1cccc(C)c1OCC(N)c1ccc2ccccc2c1.Cl (stereo unspecified) | Not Active |
| CC(=O)NC(COc1c(C)cccc1C)c1ccccc1 (stereo unspecified) | Not Active |
| Cl.NC(COc1ccccc1OC(F)(F)F)c1ccccc1 (stereo unspecified) | Not Active |
| CCc1ccccc1OCC(N)c1ccccc1.Cl (stereo unspecified) | Not Active |
| COCCNC(COc1cc(C(F)(F)F)cc(C(F)(F)F)c1)c1ccccc1.Cl (stereo unspecified) | Not Active |
| Cc1cccc(C)c1OCC(C)NCc1ccccc1.Cl (stereo unspecified) | Not Active |
| CCCc1ccccc1OCC(N)c1ccccc1.Cl (stereo unspecified) | Not Active |
| CCCNC(C)COc1c(C)cccc1C.Cl (stereo unspecified) | 66 µM |
| Cc1ccc(OCC(N)C2CC2)cc1C.Cl (stereo unspecified) | Not Active |

Tested on: not listed separately
Test: Antiarrhythmic activity in hiPSC-CMs assessed as fold prolongation of action potential relative to control
Conditions: human, ipsc-cm

| SMILES | fold change (FC) | Activity |
| --- | --- | --- |
| Cc1cccc(C)c1OCC(N)c1ccccc1.Cl (stereo unspecified) | 4 |  |
| Cc1cc(C)cc(OCC(NCCO)c2ccccc2)c1.Cl (stereo unspecified) |  | Not Active |
| CC(=O)NC(COc1c(C)cccc1C)c1ccccc1 (stereo unspecified) |  | Not Active |
| COCCNC(COc1cc(C(F)(F)F)cc(C(F)(F)F)c1)c1ccccc1.Cl (stereo unspecified) |  | Not Active |
| Cc1ccc(OCC(N)C2CC2)cc1C.Cl (stereo unspecified) |  | Not Active |

Tested on: not listed separately
Test: Antiarrhythmic activity in hiPSC-CMs assessed as prolongation of action potential
Set-up: species or system Homo sapiens, iPSC-CM
Conditions: Homo sapiens, iPSC-CM; read-out: EC50

| SMILES | EC50 |
| --- | --- |
| COc1ccccc1OCC(N)c1ccccc1.Cl (stereo unspecified) | 32.2 µM |
| COCCNC(C)COc1c(C)cccc1C.Cl (stereo unspecified) | 32 µM |
| Cc1cccc(C)c1OCC(C)NCc1ccccc1.Cl (stereo unspecified) | 5.7 µM |
| CCCNC(C)COc1c(C)cccc1C.Cl (stereo unspecified) | 10.4 µM |

Same assay, conditions: ipsc-cm

| SMILES | EC50 |
| --- | --- |
| Cc1ccc(OCC(N)c2ccccc2)c(C)c1.Cl (stereo unspecified) | Not Active |
| Cc1cccc(C)c1OCC(N)c1ccc2ccccc2c1.Cl (stereo unspecified) | Not Active |
| Cl.NC(COc1ccccc1OC(F)(F)F)c1ccccc1 (stereo unspecified) | Not Active |
| CCc1ccccc1OCC(N)c1ccccc1.Cl (stereo unspecified) | Not Active |
| CCCc1ccccc1OCC(N)c1ccccc1.Cl (stereo unspecified) | Not Active |

Tested on: not listed separately
Test: Antiarrhythmic activity in patient-derived hiPSC-CMs carrying LQT3 mutation assessed as fold shortening of action potential duration relative to control; also: test concentration or dose not given here
Assay type: functional, Homo sapiens, iPSC-CM
Conditions: not given

| SMILES | fold change (FC) |
| --- | --- |
| COc1ccccc1OCC(N)c1ccccc1.Cl (stereo unspecified) | 1.482 |
| Cc1ccc(OCC(N)c2ccccc2)c(C)c1.Cl (stereo unspecified) | 1.192 |
| Cc1cc(C)cc(OCC(NCCO)c2ccccc2)c1.Cl (stereo unspecified) | 1.5 |
| Cc1cccc(C)c1OCC(N)c1ccc2ccccc2c1.Cl (stereo unspecified) | 1.309 |
| CC(=O)NC(COc1c(C)cccc1C)c1ccccc1 (stereo unspecified) | 1.62 |
| Cl.NC(COc1ccccc1OC(F)(F)F)c1ccccc1 (stereo unspecified) | 1.513 |
| CCc1ccccc1OCC(N)c1ccccc1.Cl (stereo unspecified) | 1.979 |
| COCCNC(COc1cc(C(F)(F)F)cc(C(F)(F)F)c1)c1ccccc1.Cl (stereo unspecified) | 1.636 |
| Cc1cccc(C)c1OCC(C)NCc1ccccc1.Cl (stereo unspecified) | 1.264 |
| CCCc1ccccc1OCC(N)c1ccccc1.Cl (stereo unspecified) | 1.321 |
| CCCNC(C)COc1c(C)cccc1C.Cl (stereo unspecified) | 1.199 |
| Cc1ccc(OCC(N)C2CC2)cc1C.Cl (stereo unspecified) | 1.18 |

Tested on: not listed separately
Test: Antiarrhythmic activity in patient-derived hiPSC-CMs carrying LQT3 mutation assessed as shortening dose of action potential
Assay type: functional, Homo sapiens, iPSC-CM
Conditions: not given

| SMILES | Activity |
| --- | --- |
| COc1ccccc1OCC(N)c1ccccc1.Cl (stereo unspecified) | 0.8 µM |
| COCCNC(C)COc1c(C)cccc1C.Cl (stereo unspecified) | 7.4 µM |
| Cc1ccc(OCC(N)c2ccccc2)c(C)c1.Cl (stereo unspecified) | 7.4 µM |
| Cc1cc(C)cc(OCC(NCCO)c2ccccc2)c1.Cl (stereo unspecified) | 22 µM |
| Cc1cccc(C)c1OCC(N)c1ccc2ccccc2c1.Cl (stereo unspecified) | 22 µM |
| CC(=O)NC(COc1c(C)cccc1C)c1ccccc1 (stereo unspecified) | 22 µM |
| Cl.NC(COc1ccccc1OC(F)(F)F)c1ccccc1 (stereo unspecified) | 22 µM |
| CCc1ccccc1OCC(N)c1ccccc1.Cl (stereo unspecified) | 7.4 µM |
| COCCNC(COc1cc(C(F)(F)F)cc(C(F)(F)F)c1)c1ccccc1.Cl (stereo unspecified) | 66 µM |
| Cc1cccc(C)c1OCC(C)NCc1ccccc1.Cl (stereo unspecified) | 22 µM |
| CCCc1ccccc1OCC(N)c1ccccc1.Cl (stereo unspecified) | 2.5 µM |
| CCCNC(C)COc1c(C)cccc1C.Cl (stereo unspecified) | 2.5 µM |
| Cc1ccc(OCC(N)C2CC2)cc1C.Cl (stereo unspecified) | 22 µM |

Tested on: not listed separately
Test: Antiarrhythmic activity in patient-derived hiPSC-CMs carrying LQT3 mutation assessed as shortening of action potential duration
Assay type: functional, Homo sapiens
Conditions: ipsc-cm

| SMILES | EC50 |
| --- | --- |
| Cc1cc(C)cc(OCC(NCCO)c2ccccc2)c1.Cl (stereo unspecified) | Not Active |
| Cc1cccc(C)c1OCC(C)NCc1ccccc1.Cl (stereo unspecified) | Not Active |
| CCCNC(C)COc1c(C)cccc1C.Cl (stereo unspecified) | Not Active |
| Cc1ccc(OCC(N)C2CC2)cc1C.Cl (stereo unspecified) | Not Active |

Same assay, conditions: ipsc-cm; read-out: EC50

| SMILES | EC50 |
| --- | --- |
| COc1ccccc1OCC(N)c1ccccc1.Cl (stereo unspecified) | < 800 nM |
| COCCNC(C)COc1c(C)cccc1C.Cl (stereo unspecified) | 2300 nM |
| Cc1ccc(OCC(N)c2ccccc2)c(C)c1.Cl (stereo unspecified) | 500 nM |
| Cc1cccc(C)c1OCC(N)c1ccc2ccccc2c1.Cl (stereo unspecified) | 4730 nM |
| CC(=O)NC(COc1c(C)cccc1C)c1ccccc1 (stereo unspecified) | 800 nM |
| Cl.NC(COc1ccccc1OC(F)(F)F)c1ccccc1 (stereo unspecified) | 2600 nM |
| CCc1ccccc1OCC(N)c1ccccc1.Cl (stereo unspecified) | < 800 nM |
| COCCNC(COc1cc(C(F)(F)F)cc(C(F)(F)F)c1)c1ccccc1.Cl (stereo unspecified) | 6590 nM |
| CCCc1ccccc1OCC(N)c1ccccc1.Cl (stereo unspecified) | < 800 nM |
